Test results reported in US20090280069A1, “PROGUANIL TO TREAT SKIN/MUCOSAL DISEASES” (Tolmar, Inc., priority 2008, published 2009).

Experiments:
[1] = system: Streptococcus agalactiae ATCC 49446; assay: time kill assay, S. agalactiae (Group B); assay type: cell-based
Procedure: Streptococcus agalactiae (Group B) infections can lead to skin diseases such as erysipelas and cellulitis. A time kill assay was used to test the effects of varying concentrations of proguanil on a culture of Streptococcus agalactiae ATCC 49446. An inoculum of S. agalactiae was prepared and inoculated in vials containing Muller Hinton II broth and proguanil concentrations of 160, 80, 16, 8, and 1.6 μg/ml. A growth control using phosphate buffered saline A (PBSA) plus Mueller Hinton II broth was used in place of the drug because it has no antimicrobial effect. DGME was the solvent used to dissolve the proguanil, accordingly, 10% DGME was used as the solvent control. These inoculated broth solutions were then allowed to incubate for a period of 72 hours. Samples were taken at 0, 4, 24, 48 and 72 hours and spiral plated so the CFU/ml could be calculated. The effects of proguanil on the S. agalactiae were observed.

[2] = system: Propionibacterium acnes ATCC 6919; assay: time kill assay, P. acnes; assay type: cell-based
Procedure: A microbiological study used a time kill assay with Propionibacterium acnes ATCC 6919 as an indicator of the antibacterial activity of proguanil. […] A broth only control as well as a solvent 10% DGME control were added to the vials so that the total test volume was 15 ml. One hundred μl of a freshly grown suspension of P. acnes 6919 was then added at time zero so that the initial bacterial suspension was between 10^7 and 10^8 CFU/ml. All test and control suspensions were then incubated under anaerobic conditions at 35° C. Aliquots of the test and control suspensions were removed at 24, 48, 72, and 96 hours and plated onto tryptic soy agar in triplicate using a spiral plater. These plates were incubated anaerobically at 35° C. for 3-5 days. Surviving P. acnes colonies were then counted and the CFU/ml of test and control suspensions calculated and graphed.

[3] = system: C. minutissimum ATCC 23348; assay: time kill assay, C. minutissimum; assay type: cell-based, Corynebacterium minutissimum
Procedure: (§1) Corynebacterium minutissimum is the causative agent of erythrasma, a superficial infection of the skin characterized by slowly spreading pruritic, reddish-brown macular patches. A microbiological study used a time kill assay with C. minutissimum ATCC 23348 as an indicator of the antibacterial activity of proguanil. […] A broth only control as well as a solvent 10% DGME control were added to the vials so that the total test volume was 15 ml. One hundred μl of a freshly grown suspension of the C. minutissimum was then added at time zero so that the initial bacterial suspension was between 10^7 and 10^8 CFU/ml. All test and control suspensions were then incubated under aerobic conditions at 35° C. Aliquots of the test and control suspensions were removed at 24, 48, and 72 hours and plated onto tryptic soy agar in triplicate using a spiral plater. These plates were incubated aerobically at 35° C. for 1-3 days. Surviving colonies were then counted and the CFU/ml of test and control suspensions calculated and graphed. The effects of proguanil on the C. minutissimum were observed.

S. pyogenes ATCC 19615 = assay: time kill assay, S. pyogenes (Group A); assay type: cell-based, Streptococcus pyogenes
Procedure: as §1, with “Streptococcus pyogenes (Group A) infections can lead to many skin disease syndromes. Impetigo, ecthyma, erysipelas, and cellulitis are all diseases caused by an” for “Corynebacterium minutissimum is the causative agent of erythrasma, a superficial”, “S. pyogenes.” for “the skin characterized by slowly spreading pruritic, reddish-brown macular patches.”, “S. pyogenes” for “C. minutissimum”, “19615” for “23348”

In the case of `CC(C)NC(=N)NC(=N)Nc1ccc(Cl)cc1` [Proguanil, N-(4-Chlorophenyl)-N′-(1-methylethyl)imidodicarbonimidic diamide], the “effect on CFU/ml” value ([1]; 80 μg/ml) is reported as “slight effect”, the “effect on the bacteria” value ([1]; 160 μg/ml) is reported as “dramatic inhibition” and the CFU/ml ([1]; 160 μg/ml, T=48 and 72 hours) is reported as 0 CFU/ml. The “Relative Sensitivity (Compared to Other Strains Tested)” value (“Relative Sensitivity” below) ([1]; Streptococcus agalactiae (Group B) ATCC 49446) was “Moderately”, the “Approximate Inhibitory Level” value ([1]; Streptococcus agalactiae (Group B) ATCC 49446, level at which partial or total inhibition of growth is observed) was 160 µg/mL and the “effect on CFU/ml” value ([1]; all other concentrations (16, 8, 1.6 μg/ml)) was “very similar and near the CFU/ml of the Mueller Hinton II broth control”. For the same compound, the bacteria eliminated ([2]; 160 μg/ml, by 24 hours) was 97-100%, the “Relative Sensitivity” value ([2]; Propionibacterium acnes ATCC 6919) was “Sensitive” and the “Approximate Inhibitory Level” value ([2]; Propionibacterium acnes ATCC 6919, level at which partial or total inhibition of growth is observed) was 80 to 160 µg/mL. The “killing of P. acnes” value ([2]; between 0.16 and 16 μg/ml) was “not very effective”, the “effect on CFU/ml” value ([3]; 160 and 80 μg/ml, at 4 hours, 160 greater effect than 80) was “reduced the CFU/ml” and the CFU/ml ([3]; 160 and 80 μg/ml, by the 24 hour time point) was 0 CFU/ml. The “Relative Sensitivity” value ([3]; Corynebacterium minutissimum (ATCC 23348)) was “Very Sensitive”, the “Approximate Inhibitory Level” value ([3]; Corynebacterium minutissimum (ATCC 23348), level at which partial or total inhibition of growth is observed) was 80 µg/mL and the “effect compared to controls” value ([3]; all other test concentrations (1.6, 8, 16 μg/ml)) was “little effect”. The “effect on the bacteria” value (S. pyogenes ATCC 19615; 1.6 μg/ml) was “roughly followed the trend of the Mueller Hinton II broth control”, the “effect on the bacteria” value (S. pyogenes ATCC 19615; 8 μg/ml and 16 μg/ml, compared to Mueller Hinton II control) was “may be slightly inhibitory” and the “effect on the bacteria” value (S. pyogenes ATCC 19615; 80 μg/ml, lesser effect than 160 and 100 μg/ml) was “good growth inhibition”. The “effect on the bacteria” value (S. pyogenes ATCC 19615; 100 μg/ml, over 72 hours, single assay) was “substantial effect”, the CFU/ml (S. pyogenes ATCC 19615; 160 μg/ml, T=24, 48 and 72 hours) was 0 CFU/ml and the “effect on the bacteria” value (S. pyogenes ATCC 19615; 160 μg/ml, lowest CFU/ml at all time points) was “greatest effect”. The “Relative Sensitivity” value (S. pyogenes ATCC 19615; Streptococcus pyrogenes (Group A) ATCC 19615) was “Sensitive” and the “Approximate Inhibitory Level” value (S. pyogenes ATCC 19615; Streptococcus pyrogenes (Group A) ATCC 19615, level at which partial or total inhibition of growth is observed) was 80 to 160 µg/mL.
